The results in this text go back to EPA's ToxValDB 9.5 (doi:10.2903/j.efsa.2018.5130).

≈ marks a conversion by molar mass, not a printed value.

One data set deals with Bibionidae. The note with it: chronic/long-term; duration: 28 days; development.
In the next data set the test system is Phasianus sp. The note with it: acute; duration: 14 days; oral; unspecified; mortality.
The test system of a further data set is Pleurozium sp. The note with it: acute; duration: 72 hours; growth.
In another data set the test system is Rattus norvegicus. The settings on record: developmental; development.
The next data set has as its system Mus musculus. The note with it: acute, oral, mortality.
For a further data set, the system named is Apis mellifera. The note with it: acute, mortality.
For another data set, the system named is Tagia sp. The note with it: chronic/long-term; growth.
Another data set has as its system Daphnia magna. The note with it: chronic/long-term; duration: 21 days; reproduction.
A further data set concerns Folsomia candida. The settings on record: chronic/long-term; duration: 28 days; reproduction.
The test system of the next data set is Neomysis kadiakensis. The settings on record: acute; duration: 96 hours; mortality.
The test system of the next data set is Aphidius rhopalosiphi. The data set can be described thus: LR50; higher = less toxic. The settings on record: acute; mortality.

Turning to `COP(=S)(OC)Oc1c(Cl)cc(C)cc1Cl` [Tolclofos-methyl], the LC50 with Oncorhynchus mykiss (acute, duration: 96 hours, mortality) was found to be 0.69 µg/mL (≈ 2.29 µM); in the data set on Neomysis kadiakensis, 0.089 µg/mL (≈ 0.296 µM). In addition, the NOEC in the data set on Oncorhynchus mykiss (chronic/long-term, growth) came to 0.012 mg/L; in the data set on Bibionidae, 0.25 mg/L; in the data set with Pleurozium sp., 0.14 mg/L; in the data set on Tagia sp. it was 60 mg/kg; with Daphnia magna, 0.026 mg/L; with Folsomia candida, 11 mg/kg. The LD50 with Phasianus sp. is greater than 5000 mg/kg-day; with Mus musculus (F) it was 3600 mg/kg-day; in the data set on Mus musculus (M) it was 3500 mg/kg-day; with Apis mellifera (duration: 48 hours, oral, unspecified) it was greater than 264 µg/piece; in the data set with Apis mellifera (duration: 72 hours, dermal), 456 µg/piece; in the data set with Anas platyrhynchos (short-term, duration: 8 days, oral, feed, mortality) it was greater than 1620 mg/kg-day. Also, the NOAEL with Rattus norvegicus amounted to 70.6 mg/kg-day; in the data set with Anas platyrhynchos (reproductive, duration: 19 weeks), 77 mg/kg-day. The LR50 with Aphidius rhopalosiphi was 43.7 g/ha.
